From patent US9278994B2, “Short antimicrobial lipopeptides” (Helix BioMedix Inc., priority 2012, dated 2016)
Converted amounts (≈) assume the structure as drawn. Where a SMILES comes first, the peptide text is derived from it. [ ]: non-standard residue; d: D form. The star is where a group is joined. Palmitoyl = CCCCCCCCCCCCCCCC(=O)*

Assays:
E. coli UB1005 = system: E. coli UB1005
Method: (§1) We conducted the minimal inhibitory concentration (MIC) determination using CLSI (Clinical and Laboratory standard Institute) recommended standard protocol for antimicrobials (Methods for Dilution Antimicrobial Susceptibility Tests for Bacteria That Grow Aerobically; Approved Standard—Ninth Edition).
(§2) 2. Bacterial strains and culture conditions. E. coli UB1005, S. aureus SAP0017 (MRSA) and C. albicans 105 were grown in Mueller Hinton (MH) (Difco, BD Biosciences, MD) agar plates and broth (2 g of beef extract, 17.5 g of acid hydrolysis of casein and 1.5 g of starch per liter) at 37° C. unless otherwise indicated. Bacteria from frozen stock were subcultured onto freshly made MH agar plates prior to susceptibility testing. For P. acnes, the bacterium was grown in BBL™ Brain-Heart infusion (Becton, Dickinson & Company, Sparks Md.) broth or agar plates at 37° C. in anaerobic condition generated using a anaerobic jar and AnaeroGen™ (Oxoid, Basingstoke, Hampshire, England).
(§3) 3. […] The minimal inhibitory concentration (MIC) of each peptide was determined using modified CLSI microtiter broth dilution assay (Methods for Dilution Antimicrobial Susceptibility Tests for Bacteria That Grow Aerobically; Approved Standard—Ninth Edition). An inoculum of 10^5-10^6 colony forming units (CFU)/ml was used or 10^4 CFU/ml for yeast. The MIC value was taken as the lowest peptide concentration at which more than 90% of microbial growth was inhibited after 15 to 20 h of incubation at 37° C. For P. acnes, the incubation was kept under anaerobic condition at 37° C. for 2 weeks before MIC was determined Kill kinetics was performed using a given concentration (about 2-5-fold MIC) of peptide mixed with indicator microorganism. After appropriate dilution the cells were plated on agar plates after defined time intervals and incubated at 37° C. overnight. In the case of P. acnes an extended incubation period was required. The CFU was counted and plotted as survival of bacteria after peptide treatment over time, which indicates the effectiveness of a peptide to kill a microbe.

S. aureus SAP0017 (MRSA) [1] = system: S. aureus SAP0017 (MRSA)
Method: as §1, §2, §3

C. albicans 105 = system: C. albicans 105
Method: as §1, §2, §3

S. aureus SAP0017 (MRSA) [2] = assay type: cell-based, Staphylococcus aureus; conditions: SAP0017
Method: as §3

[3] = system: EpiDerm (EPI-200) skin tissue; assay: Skin tissue toxicity, EpiDerm skin model with MTT assay; assay type: cell-based; conditions: tissue viability (MTT), treated 20 hr
Method: 4. Skin tissue toxicity determination. Skin toxicity and compatibility was determined using EpiDerm (EPI-200) skin tissue and MTT Kit (MTT-100) (MatTek, Ashland, Mass.) according to the manufacture's instruction. 1% Triton X-100 and PBS were used as positive (toxic) and negative (non-toxic) control, respectively.
Potential for dermal irritancy of the lipodipeptides was tested using EpiDerm™ Skin Model (MatTek, Ashland, Mass.) in combination with a modified MTT assay. […] EpiDerm™ consists of organized basal, spinous, granular, and cornified layers analogous to those found in vivo. The tissues were treated with each compound at desired concentration for 20 hr.

P. acnes = assay type: cell-based, Propionibacterium acnes
Method: as §2, §3

human dermal fibroblasts = assay: Gene profiling (PCR array of extracellular matrix adhesion molecule genes); assay type: cell-based; conditions: 5 μg/ml, 24 h; up (+) or down (−) regulation
Method: 5. Gene profiling analysis. The 84 genes encoding extracellular matrix adhesion molecules in human dermal fibroblasts were analyzed using PCR arrays conducted by Sunny Biodiscovery, Inc (Santa Paula, Calif.). Human dermal fibroblasts were from Zen-Bio, Research Triangle Park, N.C. (cat. #DF-F, lot #DFMF112410). […] At the end of the incubation cells were observed under the inverted Nikon TS microscope.
At the end of the incubation period cells were preserved in RNAlater solution (Ambion, Austin, Tex.) for 6 h. RNA was extracted and purified with NucleoSpin RNA II kit from Machery-Nagel, Bethleem, Pa.). Purified total RNA was assessed at 230 nm, 260 nm and 280 nm with Agilent HP-8452A diode array spectrophotometer. The concentration of RNA was equalized across the samples and the expression of genes of interest was measured by real-time quantitative PCR with BioRad iCycler iQ Detection System using PCR arrays PAHS-013A (www.sabiosciences.com/rt_pcr_product/HTML/PAHS-013A.html), with 1st strand synthesis kit, SYBR Green master mix and PCR running conditions from Qiagen (formerly SA Biosciences). Efficiency ΔΔCt method was used for quantification of results, after the normalization of gene expression to 5 housekeeping genes carried with the RT2 Profiler PCR Array Data Analysis version 3.5 software.

[4] = system: P. acnes, S. aureus, E. coli and C. albicans; assay: MIC / antimicrobial activity; assay type: cell-based; conditions: summary of MIC results of Table 1
Method: as §2, §3

CCCCCCCCCCCCCCCC(=O)N[C@@H](CCCCN)C(=O)N1CCC[C@H]1C(=O)N[C@H](C(N)=O)C(C)C [HB2180, Pal-KPV-NH2] (Palmitoyl-Lys-Pro-Val-NH2)
MIC E. coli (E. coli UB1005): 128 µg/mL (≈ 221 µM)
MIC S. aureus (S. aureus SAP0017 (MRSA) [1]): 8 µg/mL (≈ 13.8 µM)
MIC C. albicans (C. albicans 105): 16 µg/mL (≈ 27.6 µM)
logs of S. aureus eradicated in a kill assay (S. aureus SAP0017 (MRSA) [2]): 5-6 logs
Toxicity EpiDerm [3]: >2000 µg/mL
MIC P. acnes (P. acnes): 1 to 2 µg/mL

CCCCCCCCCCCCCCCC(=O)N[C@@H](CCCCN)C(=O)N1CCC[C@H]1C(=O)N[C@@H](CC(C)C)C(N)=O [HB2209, Pal-KPL-NH2] (Palmitoyl-Lys-Pro-Leu-NH2)
MIC E. coli (E. coli UB1005): >2000 µg/mL
MIC S. aureus (S. aureus SAP0017 (MRSA) [1]): 16 µg/mL (≈ 26.9 µM)
MIC C. albicans (C. albicans 105): 32 µg/mL (≈ 53.9 µM)
logs of S. aureus eradicated in a kill assay (S. aureus SAP0017 (MRSA) [2]): 5-6 logs
Toxicity EpiDerm [3]: >2000 µg/mL
MIC P. acnes (P. acnes): 4 to 8 µg/mL

CCCCCCCCCCCCCCCC(=O)N[C@@H](CCCCN)C(=O)N[C@@H](CCCNC(=N)N)C(N)=O [HB2259, Pal-KR-NH2] (Palmitoyl-Lys-Arg-NH2)
MIC E. coli (E. coli UB1005): 8 µg/mL (≈ 14.8 µM)
MIC S. aureus (S. aureus SAP0017 (MRSA) [1]): 2 µg/mL (≈ 3.71 µM)
MIC C. albicans (C. albicans 105): 16 µg/mL (≈ 29.6 µM)
Fold change (peptide vs. PBS control) ADAMTS (human dermal fibroblasts): 2.4284 Fold change
Fold change (peptide vs. PBS control) CDH1 (human dermal fibroblasts): 1.0718 Fold change
Fold change (peptide vs. PBS control) COL1A1 (human dermal fibroblasts): −1.8661 Fold change
Fold change (peptide vs. PBS control) COL8A1 (human dermal fibroblasts): −2.5847 Fold change
Fold change (peptide vs. PBS control) HAS1 (human dermal fibroblasts): −3.0314 Fold change
Fold change (peptide vs. PBS control) ITGA2 (human dermal fibroblasts): 1.3195 Fold change
Fold change (peptide vs. PBS control) ITGA7 (human dermal fibroblasts): −1.8661 Fold change
Fold change (peptide vs. PBS control) ITGB2 (human dermal fibroblasts): 2.1435 Fold change
Fold change (peptide vs. PBS control) KAL1 (human dermal fibroblasts): 1.2311 Fold change
Fold change (peptide vs. PBS control) MMP1 (human dermal fibroblasts): 1.1487 Fold change
Fold change (peptide vs. PBS control) MMP8 (human dermal fibroblasts): 2.1435 Fold change
Fold change (peptide vs. PBS control) MMP9 (human dermal fibroblasts): −2.1435 Fold change
Fold change (peptide vs. PBS control) MMP10 (human dermal fibroblasts): 1.6245 Fold change
Fold change (peptide vs. PBS control) MMP13 (human dermal fibroblasts): −3.249 Fold change
Fold change (peptide vs. PBS control) MMP14 (human dermal fibroblasts): −2.4623 Fold change
Fold change (peptide vs. PBS control) SELE (human dermal fibroblasts): 1.0718 Fold change
Fold change (peptide vs. PBS control) THBS3 (human dermal fibroblasts): −1.6245 Fold change
antimicrobial activity (in words) [4]: broad spectrum antimicrobial activity
MIC P. acnes (P. acnes): <1 µg/mL

CC(C)[C@H](NC(=O)[C@@H]1CCCN1C(=O)[C@@H](N)CCCCN)C(=O)O [HB2067, KPV-OH, reference compound] (H-Lys-Pro-Val-OH)
MIC E. coli (E. coli UB1005): >2000 µg/mL
MIC S. aureus (S. aureus SAP0017 (MRSA) [1]): >2000 µg/mL
MIC C. albicans (C. albicans 105): >2000 µg/mL
Toxicity EpiDerm [3]: >2000 µg/mL
MIC P. acnes (P. acnes): >2000 µg/mL

CC(C)[C@H](NC(=O)[C@@H]1CCCN1C(=O)[C@@H](N)CCCCN)C(N)=O [HB2068, KPV-NH2, reference compound] (H-Lys-Pro-Val-NH2)
MIC E. coli (E. coli UB1005): >2000 µg/mL
MIC S. aureus (S. aureus SAP0017 (MRSA) [1]): >2000 µg/mL
MIC C. albicans (C. albicans 105): >2000 µg/mL
Toxicity EpiDerm [3]: >2000 µg/mL
MIC P. acnes (P. acnes): >2000 µg/mL

CCCCCCCCCCCCCCCC(=O)N[C@@H](CCCCN)C(=O)N1CCC[C@@H]1C(N)=O [HB2203, Pal-K-dP-NH2] (Palmitoyl-Lys-[dP]-NH2)
MIC E. coli (E. coli UB1005): 128 µg/mL (≈ 266 µM)
MIC S. aureus (S. aureus SAP0017 (MRSA) [1]): 8 µg/mL (≈ 16.6 µM)
MIC C. albicans (C. albicans 105): 16 µg/mL (≈ 33.3 µM)
Toxicity EpiDerm [3]: >2000 µg/mL
MIC P. acnes (P. acnes): 1 to 2 µg/mL

C[C@@H](O)[C@H](NC(=O)[C@H]1CCCN1C(=O)[C@@H](N)CCCCN)C(N)=O [HB2089, K-dPT-NH2, reference compound] (H-Lys-[dP]-Thr-NH2)
MIC E. coli (E. coli UB1005): >2000 µg/mL
MIC S. aureus (S. aureus SAP0017 (MRSA) [1]): >2000 µg/mL
MIC C. albicans (C. albicans 105): >2000 µg/mL
Toxicity EpiDerm [3]: >2000 µg/mL
MIC P. acnes (P. acnes): >2000 µg/mL

CCCCCCCCCCCCCCCC(=O)N[C@@H](CCCCN)C(=O)N[C@@H](Cc1c[nH]cn1)C(N)=O [HB2242, Pal-KH-NH2]
MIC E. coli (E. coli UB1005): 16 µg/mL (≈ 30.7 µM)
MIC S. aureus (S. aureus SAP0017 (MRSA) [1]): 4 µg/mL (≈ 7.68 µM)
MIC C. albicans (C. albicans 105): 16 µg/mL (≈ 30.7 µM)
Fold change (peptide vs. PBS control) ADAMTS (human dermal fibroblasts): 4.7899 Fold change
Fold change (peptide vs. PBS control) CDH1 (human dermal fibroblasts): 1.9725 Fold change
Fold change (peptide vs. PBS control) COL1A1 (human dermal fibroblasts): 1.1975 Fold change
Fold change (peptide vs. PBS control) COL8A1 (human dermal fibroblasts): −1.4044 Fold change
Fold change (peptide vs. PBS control) HAS1 (human dermal fibroblasts): −2.3295 Fold change
Fold change (peptide vs. PBS control) ITGA6 (human dermal fibroblasts): −1.014 Fold change
Fold change (peptide vs. PBS control) ITGA7 (human dermal fibroblasts): −2.0279 Fold change
Fold change (peptide vs. PBS control) ITGB2 (human dermal fibroblasts): 1.3947 Fold change
Fold change (peptide vs. PBS control) KAL1 (human dermal fibroblasts): 1.8404 Fold change
Fold change (peptide vs. PBS control) MMP1 (human dermal fibroblasts): 1.7171 Fold change
Fold change (peptide vs. PBS control) MMP8 (human dermal fibroblasts): −1.6472 Fold change
Fold change (peptide vs. PBS control) MMP9 (human dermal fibroblasts): −1.6472 Fold change
Fold change (peptide vs. PBS control) MMP10 (human dermal fibroblasts): 1.2142 Fold change
Fold change (peptide vs. PBS control) MMP13 (human dermal fibroblasts): −2.4967 Fold change
Fold change (peptide vs. PBS control) MMP14 (human dermal fibroblasts): 1.2142 Fold change
Fold change (peptide vs. PBS control) SELE (human dermal fibroblasts): 1.3947 Fold change
Fold change (peptide vs. PBS control) THBS3 (human dermal fibroblasts): −3.0738 Fold change
antimicrobial activity (in words) [4]: broad spectrum antimicrobial activity
MIC P. acnes (P. acnes): 1 to 2 µg/mL

CCCCCCCCCCCCCCCC(=O)N[C@@H](CCCCN)C(=O)N1CCC[C@H]1C(N)=O [HB2202, Pal-KP-NH2] (Palmitoyl-Lys-Pro-NH2)
MIC E. coli (E. coli UB1005): 64 µg/mL (≈ 133 µM)
MIC S. aureus (S. aureus SAP0017 (MRSA) [1]): 16 µg/mL (≈ 33.3 µM)
MIC C. albicans (C. albicans 105): 16 µg/mL (≈ 33.3 µM)
Toxicity EpiDerm [3]: >2000 µg/mL
MIC P. acnes (P. acnes): 1 µg/mL (≈ 2.08 µM)

C[C@@H](O)[C@H](NC(=O)[C@H]1CCCN1C(=O)[C@@H](N)CCCCN)C(=O)O [HB2090, K-dPT-OH, reference compound] (H-Lys-[dP]-Thr-OH)
MIC E. coli (E. coli UB1005): >2000 µg/mL
MIC S. aureus (S. aureus SAP0017 (MRSA) [1]): >2000 µg/mL
MIC C. albicans (C. albicans 105): >2000 µg/mL
Toxicity EpiDerm [3]: >2000 µg/mL
MIC P. acnes (P. acnes): >2000 µg/mL
